Measurements taken from article PMC4104029, “Mechanism of Action of Compound-13: An α1-Selective Small Molecule Activator of AMPK” (Chemistry & Biology, 2014).

Columns and labels:
[1] = biological target: T1, GST-AMPKγ2 subunit fusion (Homo sapiens, UniProt Q9UGJ0); assay: Competitive elution of AMPKγ2 from ATP-Sepharose; format: binding; settings: C2 and AMP to the same extent
T1 construct: A C-terminal fragment of AMPKγ2 bearing CBS domains 1-4 (247-569) was expressed in; made in house; host or cells: E. coli
Procedure: Supplemental Figure Legends:
Figure S1, related to Figures 1-3. Subunit composition of AMPK preparations used in this study. (A) Heterotrimeric AMPK complexes (10 ng) produced in both Sf9 (Sigma and Signalchem) and E.coli (in our laboratory) were analysed by Western blotting using isoform specific antibodies. Note that both the α2/α1-HOOK and α2/α1-LOOP chimeras are no longer recognised by the anti-α2 antibody as the epitope has been replaced (see Fig S4). (B) Heterotrimeric AMPK α2/α1 chimeric complexes expressed in E.coli (2 μg) were separated by SDS-PAGE and stained with Coomassie G-250. Arrows indicate the position of the […]
Figure S2, related to Figure 1. C2 has negligible effects on a panel of 138 protein kinases.
Kinase inhibition screen was performed by the International Centre for Kinase profiling (Dundee). Assays were performed in duplicate using 10 µM C2 and are representative of two independent screens. Results are shown in rank order as mean % activity compared with controls in the absence of compound ± SD. […]
Figure S3, related to Figure 2. […] Results are expressed as mean Pi incorporated in nmol.min-1.mg-1 ± SD. […] Results are expressed as fold increase in activity relative to controls in the absence of compound ± SD.
(E) C2 and AMP displace a GST-AMPKγ2 subunit fusion from ATP-γ-Sepharose. […] The presence of eluted AMPKγ2 was analysed by SDS-PAGE and staining with colloidal Coomassie. […]

[2] = system: rat liver AMPK (mixture of α1β1γ1 and α2β1γ1); assay: Rat liver AMPK activation assay; format: biochemical; settings: for EC50: 0.2 mM ATP and 0.2 mM AMARA
Procedure: AMPK phosphotransferase activity was assayed in reactions (50 μl) containing 50 mM HEPES, pH 7.4, 10 mM MgCl2, 0.1 mM EGTA, 1 mM DTT, 0.01% BRIJ-35, 100 μM [γ-^32P]ATP (∼250 CPM⋅pmol^−1) and 200 μM AMARA (AMARAASAAALARRR). Reactions were started by the addition of AMPK (5 mU), incubated for 20 min at 30°C and quenched by spotting onto P81 and immersion in 75 mM H3PO4. Washed filters were dried and [^32P] incorporation determined by Cherenkov counting. AMPK activity in cell extracts was determined by immunoprecipitation with AMPKα1 or AMPKα2 antibodies from 50 μg material, as previously described ([Hunter et al., 2011]). Results are expressed as picomoles Pi incorporated per minute-milligram or the fold increase in activity compared to controls in the absence of the compound and were fitted to the following equation: v=vo+{(vmax−vo)[A]^h/Kah+[A]^h}, where v is the velocity, vo is the velocity in the absence of compound, [A] is the concentration of activator, Ka is the concentration of activator that increases velocity to 50% maximal stimulated activity, and h is the Hill coefficient. […]
Figure S3, related to Figure 2. C2 is a partial agonist of rat liver AMPK and is antagonised by ADP but has no effect on isolated AMPKα subunits. (A) Full-length human AMPKα1 and α2 subunits were prepared in E.coli and activated with CAMKK as described in Methods. Isolated AMPKα subunits were assayed under standard conditions in the presence of C2 (0 - 1000 nM). Results are expressed normalised to maximal activity in the absence of ligand and represent the average ± SD of three independent experiments on a single preparation of kinase. (B) Rat liver purified AMPK (containing α1 and α2 subunits in complex with β1γ1) was assayed for activation by AMP and C2 in the presence of 0.2 mM ATP and 0.2 mM AMARA as described in Methods. Results are expressed as mean Pi incorporated in nmol.min-1.mg-1 ± SD. (C) Rat liver AMPK was assayed under standard conditions in the presence of saturating AMP (30 µM) and increasing concentrations of C2 (0 - 10 µM). (D) Recombinant AMPK α1β1γ1 was assayed under standard conditions in the presence of 1 μM C2 and increasing concentrations of ADP (0 - 200 μM). Results are expressed as fold increase in activity relative to controls in the absence of compound ± SD.
(E) C2 and AMP displace a GST-AMPKγ2 subunit fusion from ATP-γ-Sepharose. A purified C-terminal fragment of AMPKγ2 bearing CBS domains 1-4 was absorbed onto ATP- […]
Sepharose. […]
PAGE and staining with colloidal Coomassie. (F) Recombinant PP2Cα was assayed by monitoring the release of phosphate from 100 μM EFLR(pT)SCGS in the presence of increasing concentrations of C2 (0 – 100 μM). The plant alkaloid, sanguinarine was included as a positive control for inhibition of phosphatase activity. […]

T1 sequence (Q9UGJ0 247-569): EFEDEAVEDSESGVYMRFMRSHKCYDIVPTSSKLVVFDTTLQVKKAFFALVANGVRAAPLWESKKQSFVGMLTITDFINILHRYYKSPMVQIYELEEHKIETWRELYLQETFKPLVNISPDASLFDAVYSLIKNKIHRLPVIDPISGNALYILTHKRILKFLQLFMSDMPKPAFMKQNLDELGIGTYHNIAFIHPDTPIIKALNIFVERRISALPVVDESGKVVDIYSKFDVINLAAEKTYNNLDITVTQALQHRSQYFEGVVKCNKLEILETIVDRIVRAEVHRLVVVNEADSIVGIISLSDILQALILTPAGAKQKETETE

Q: With Nc1ncnc2c1ncn2[C@@H]1O[C@H](COP(=O)(O)O)[C@@H](O)[C@H]1O [AMP, reference compound] as the molecule, how does the “displacement from ATP-γ-Sepharose” value [1] read?
A: displaced

Q: And the EC50 [2]?
A: 3.6 ± 0.2 µM

Q: What does the source list for O=P(O)(O)c1ccc(-c2cc(O)on2)o1 [Compound C2, 5-(5-hydroxyl-isoxazol-3-yl)-furan-2-phosphonic acid]?
A: displacement from ATP-γ-Sepharose [1]: displaced; extent of activation compared with AMP [2]: only half the extent; EC50 [2]: 0.065 ± 0.004 µM; reduction of activity stimulated by 30 μM AMP ([2]; C2 0–10 µM): ≈ 50%
